# Reference: patent publication US11753409B2, “Crystalline salts of a B-RAF kinase inhibitor” (Xynomic Pharmaceuticals, Inc., priority 2017, dated 2023)
# “Also recorded” adds a separate entry of the source. Read-outs that look alike come from different tables or passages of the source.
# Tests used:
# [1] = Pharmacokinetics following oral administration to rats; format: in vivo, HsdHan:WIST Norway rats; conditions: rat; for AUD: AUD range 0-24 h
# Method: The pharmacokinetics of N-(3-(5-((1-ethylpiperidin-4-yl)(methyl)amino)-3-(pyrimidin-5-yl)-1H-pyrrolo[3,2-b]pyridin-1-yl)-2,4-difluorophenyl)propane-1-sulfonamide hydrochloride salt and N-(3-(5-((1-ethylpiperidin-4-yl)(methyl)amino)-3-(pyrimidin-5-yl)-1H-pyrrolo[3,2-b]pyridin-1-yl)-2,4-difluorophenyl)propane-1-sulfonamide […] following oral administration at 40 mg and 80 mg (dose calculated as the free base) to HsdHan:WIST Norway rats. Each salt was administered to 3 animals.
# [2] = Equilibrium solubility in various aqueous media (solubility after 2 h); format: physicochemical; conditions: for solubility at 2 h: thermodynamic from solid
# Method: Saturated solutions are prepared in well plates by adding an appropriate volume of selected aqueous media (typically in the range of 0.25-1.5 mL) into each well which contains a known quantity of solid drug substance (typically in the range 0.5-5.0 mg). The wells are shaken or stirred for a predefined time period (typically in a range of 2-24 h) and then filtered using appropriate filter membranes (typically PTFE-filters with 0.45 μm pore size). Filter absorption is avoided by discarding the first few drops of filtrate. The amount of dissolved drug substance is determined by UV spectroscopy. In addition, the pH of the aqueous saturated solution is measured using a glass-electrode pH meter.
# The equilibrium solubility of N-(3-(5-((1-Ethylpiperidin-4-yl)(methyl)amino)-3-(pyrimidin-5-yl)-1H-pyrrolo[3,2-b]pyridin-1-yl)-2,4-difluorophenyl)propane-1-sulfonamide monohydrochloride salt in various media was determined.
# The solubility of N-(3-(5-((1-Ethylpiperidin-4-yl)(methyl)amino)-3-(pyrimidin-5-yl)-1H-pyrrolo[3,2-b]pyridin-1-yl)-2,4-difluorophenyl)propane-1-sulfonamide monosuccinate salt in various media was determined.
# [3] = Intrinsic dissolution rate, rotating disc method; format: physicochemical
# Method: The intrinsic dissolution rate of 3-(5-((1-ethylpiperidin-4-yl)(methyl)amino)-3-(pyrimidin-5-yl)-1H-pyrrolo[3,2-b]pyridin-1-yl)-2,4-difluorophenyl)propane-1-sulfonamide salts was determined in aqueous media covering a range of pH 1.1-7.4 using the rotating disc method which maintains a constant surface area.
# The drug substance (5 mg) was compressed at 356.1 Newtons for 60 s to form a disk. These disks were mounted to sample holders which fit into a miniaturized dissolution testing apparatus. The dissolution media were stirred at 200 rpm at a temperature of 37° C. Samples were automatically withdrawn every second minute from the dissolution vessel and assayed by UV spectrophotometry.
# The intrinsic dissolution rate of N-(3-(5-((1-ethylpiperidin-4-yl)(methyl)amino)-3-(pyrimidin-5-yl)-TH-pyrrolo[3,2-b]pyridin-1-yl)-2,4-difluorophenyl)propane-1-sulfonamide monohydrochloride salt in various media was measured in media at various pH values.
# The intrinsic dissolution rate of N-(3-(5-((1-ethylpiperidin-4-yl)(methyl)amino)-3-(pyrimidin-5-yl)-1H-pyrrolo[3,2-b]pyridin-1-yl)-2,4-difluorophenyl)propane-1-sulfonamide monosuccinate salt in various media was measured in media at various pH values.
# [4] = Intrinsic dissolution rate, rotating disc method; format: physicochemical; conditions: pH of medium 1.0 (0.1M HCl), 37° C.
# [5] = Milling and compression stress followed by XRPD; format: physicochemical
# Method: FIG. 20 is a plot of the XRPD of N-(3-(5-((1-ethylpiperidin-4-yl)(methyl)amino)-3-(pyrimidin-5-yl)-1H-pyrrolo[3,2-b]pyridin-1-yl)-2,4-difluorophenyl)propane-1-sulfonamide monohydrochloride salt following milling in a swing mill for 10 min. at 30 rps.
# FIG. 21 is a plot of the XRPD of N-(3-(5-((1-ethylpiperidin-4-yl)(methyl)amino)-3-(pyrimidin-5-yl)-1H-pyrrolo[3,2-b]pyridin-1-yl)-2,4-difluorophenyl)propane-1-sulfonamide monohydrochloride salt following compression at 2000 N for 1 s to a tablet (diameter-5 mm).
# FIG. 31 is a plot of the XRPD of N-(3-(5-((1-ethylpiperidin-4-yl)(methyl)amino)-3-(pyrimidin-5-yl)-1H-pyrrolo[3,2-b]pyridin-1-yl)-2,4-difluorophenyl)propane-1-sulfonamide monosuccinate salt following milling in a swing mill for 10 min. at 30 rps.
# FIG. 32 is a plot of the XRPD of N-(3-(5-((1-ethylpiperidin-4-yl)(methyl)amino)-3-(pyrimidin-5-yl)-1H-pyrrolo[3,2-b]pyridin-1-yl)-2,4-difluorophenyl)propane-1-sulfonamide monosuccinate salt following compression at 2000 N for 1 s to a tablet (diameter-5 mm).
# [6] = Sorption-desorption (DVS) of the salts with XRPD before and after; format: physicochemical
# Method: Dynamic Vapor Sorption (DVS) was performed in a IGAsorp Water Sorption Analyzer from Hiden Isochema. Adsorption and desorption isotherms were performed at 25° C. with 10% RH step intervals ranging from 0% relative humidity up to 90% relative humidity.
smiles,measurement,setting,value
"CCCS(=O)(=O)Nc1ccc(F)c(-n2cc(-c3cncnc3)c3nc(N(C)C4CCN(CC)CC4)ccc32)c1F.O=C(O)CCC(=O)O [Monosuccinate Salt, N-(3-(5-((1-Ethylpiperidin-4-yl)(methyl)amino)-3-(pyrimidin-5-yl)-1H-pyrrolo[3,2-b]pyridin-1-yl)-2,4-difluorophenyl)propane-1-sulfonamide monosuccinate salt]",AUD,[1]; 40 mg/kg oral,30.3 µM·h
same,AUD,[1]; 80 mg/kg oral,25.1 µM·h
same,Tmax,"[1]; HsdHan:WIST, in vivo, 40 mg/kg oral",2 h
same,Tmax,"[1]; HsdHan:WIST, in vivo, 80 mg/kg oral",2.7 h
same,bioavailability,"[1]; HsdHan:WIST, plasma, po, 40 mg/kg dose",50%
same,Cmax,"[1]; HsdHan:WIST, plasma, 40 mg/kg oral",6550 nM
same,Cmax,"[1]; HsdHan:WIST, plasma, 80 mg/kg oral",3520 nM
same,concentration at 24 h,"[1]; HsdHan:WIST, in vivo, po, 40 mg/kg, Time 24.0, 40 mg/kg oral, mean n = 3, read-out: Blood Plasma Concentrations",3.98 nM
same,concentration at 24 h,"[1]; HsdHan:WIST, in vivo, po, 80 mg/kg, Time 24.0, 80 mg/kg oral, mean n = 3, read-out: Blood Plasma Concentrations",5.09 nM
same,concentration at 24 h,"[1]; Time 0.5, 40 mg/kg oral, mean n = 3, read-out: Blood Plasma Concentrations",523 nM
same,concentration at 24 h,"[1]; Time 0.5, 80 mg/kg oral, mean n = 3, read-out: Blood Plasma Concentrations",274 nM
same,concentration at 24 h,"[1]; Time 1.0, 40 mg/kg oral, mean n = 3, read-out: Blood Plasma Concentrations",1320 nM
same,concentration at 24 h,"[1]; Time 1.0, 80 mg/kg oral, mean n = 3, read-out: Blood Plasma Concentrations",638 nM
same,concentration at 24 h,"[1]; Time 2.0, 40 mg/kg oral, mean n = 3, read-out: Blood Plasma Concentrations",6550 nM
same,concentration at 24 h,"[1]; Time 2.0, 80 mg/kg oral, mean n = 3, read-out: Blood Plasma Concentrations",3380 nM
same,concentration at 24 h,"[1]; Time 4.0, 40 mg/kg oral, mean n = 3, read-out: Blood Plasma Concentrations",3860 nM
same,concentration at 24 h,"[1]; Time 4.0, 80 mg/kg oral, mean n = 3, read-out: Blood Plasma Concentrations",2620 nM
same,concentration at 24 h,"[1]; Time 6.0, 40 mg/kg oral, mean n = 3, read-out: Blood Plasma Concentrations",1140 nM
same,concentration at 24 h,"[1]; Time 6.0, 80 mg/kg oral, mean n = 3, read-out: Blood Plasma Concentrations",1420 nM
same,Exposure values compared with the monohydrochloride salt,[1]; oral,substantially higher
same,solubility at 2 h,"[2]; 0.01 M HCl, simulated gastric fluid, HCl (0.01M)",> 50 µg/mL
same,solubility at 2 h,"[2]; 0.1 M HCl, simulated gastric fluid, HCl (0.1M)",200 µg/mL
same,Solubility compared with the monohydrochloride salt,[2]; a number of media tested,substantially higher
same,solubility at 2 h,"[2]; aqueous buffer, 0.1M Citric acid",> 5000 µg/mL
same,solubility at 2 h,"[2]; aqueous buffer, Acetate Buffer (pH 5.0)",> 5000 µg/mL
same,solubility at 2 h,"[2]; aqueous buffer, McIlvaine Buffer (pH 2.2)",> 5000 µg/mL
same,solubility at 2 h,"[2]; aqueous buffer, McIlvaine Buffer (pH 3.0)",> 5000 µg/mL
same,solubility at 2 h,"[2]; aqueous buffer, McIlvaine Buffer (pH 4.0)",> 5000 µg/mL
same,solubility at 2 h,"[2]; aqueous buffer, McIlvaine Buffer (pH 4.5)",> 5000 µg/mL
same,solubility at 2 h,"[2]; aqueous buffer, McIlvaine Buffer (pH 5.0)",> 5000 µg/mL
same,solubility at 2 h,"[2]; aqueous buffer, McIlvaine Buffer (pH 6.0)",3700 µg/mL
same,solubility at 2 h,"[2]; aqueous buffer, McIlvaine Buffer (pH 6.8)",> 5000 µg/mL
same,solubility at 2 h,"[2]; aqueous buffer, McIlvaine Buffer (pH 7.4)",300 µg/mL
same,solubility at 2 h,"[2]; aqueous buffer, Phosphate Buffer (pH 6.8)",> 5000 µg/mL
same,solubility at 2 h,"[2]; aqueous buffer, Sorensen Buffer (pH 9.0)",1 µg/mL
same,solubility at 2 h,"[2]; aqueous buffer, Sorensen Buffer (pH 11)",50 µg/mL
same,solubility at 2 h,[2]; Simulated intestinal fluid (FaSSIF),3 µg/mL
same,solubility at 2 h,[2]; Simulated intestinal fluid (FeSSIF),400 µg/mL
same,solubility at 2 h,[2]; water,> 2000 µg/mL
same,Intrinsic dissolution rate compared with the monohydrochloride salt,[3],substantially higher
same,Intrinsic Dissolution Rate,"[3]; pH of medium 2.2, 37° C.",6844 μg/cm^2/min.
same,Intrinsic Dissolution Rate,"[3]; pH of medium 3.0, 37° C.",6605 μg/cm^2/min.
same,Intrinsic Dissolution Rate,"[3]; pH of medium 4.5, 37° C.",2457 μg/cm^2/min.
same,Intrinsic Dissolution Rate,"[3]; pH of medium 6.8, 37° C.",2533 μg/cm^2/min.
same,Intrinsic Dissolution Rate,"[3]; pH of medium 7.4, 37° C.",<1 μg/cm^2/min.
same,Intrinsic Dissolution Rate,[4],201 μg/cm^2/min.
same,Crystallinity and polymorphic form after compression (XRPD),[5]; 2000 N for 1 s to a tablet (diameter 5 mm),no significant decrease in crystallinity or change in polymorphic form
same,Crystallinity and polymorphic form after milling (XRPD),[5]; swing mill for 10 min. at 30 rps,slight decrease in crystallinity but no change in polymorphic form
same,Change in structure (XRPD) after sorption-desorption experiment,"[6]; XRPD before and after, monosuccinate salt",no change in crystallinity or polymorphic form; also recorded: no significant change in structure occurred
same,Reversible weight gain (isotherm sorption-desorption),[6]; range from 0-80% relative humidity,approximately 0.25%
same,Reversible weight gain (isotherm sorption-desorption),[6]; range from 0-90% relative humidity,approximately 0.4%
same,Weight gain (sorption-desorption),"[6]; range from 10-90% relative humidity, scale-up sample",approximately 1.2%
